Experimental data reported in publication PMC6422238, “Absence of a human ortholog of rodent Kupffer cell galactose-binding receptor encoded by the CLEC4f gene” (Glycobiology, 2019).

Experiments:
Bovine CLEC4f protein = target: T1, Bovine CLEC4f protein (Bos taurus, UniProt A0AAA9RVQ7); assay: affinity chromatography on galactose-Sepharose; type: binding; settings: immobilised galactose (divinyl sulfone coupling); 25 mM CaCl2, 150 mM NaCl, pH 7.8; Ca2+-dependent, eluted with EDTA
T1 construct: C-terminal fragment of the extracellular domain (neck + CRD), E. coli BL21(DE3) inclusion bodies, renatured; 35 kDa calculated; trimer; borders only in supplement
T1 sequence (A0AAA9RVQ7 274-591 limits assumed): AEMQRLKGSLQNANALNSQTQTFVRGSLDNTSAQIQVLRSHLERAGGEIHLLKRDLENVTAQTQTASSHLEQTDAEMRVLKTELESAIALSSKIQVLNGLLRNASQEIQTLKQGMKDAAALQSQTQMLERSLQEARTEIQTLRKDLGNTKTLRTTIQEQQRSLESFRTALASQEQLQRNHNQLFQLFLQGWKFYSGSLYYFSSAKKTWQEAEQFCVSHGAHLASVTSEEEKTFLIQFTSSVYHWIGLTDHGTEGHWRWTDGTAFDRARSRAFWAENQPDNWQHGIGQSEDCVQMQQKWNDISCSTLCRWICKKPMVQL

[1] = target: T2, Murine CLEC4f protein; murine Kupffer cell receptor (Mus musculus, UniProt P70194); assay: affinity re-purification of the labelled protein on galactose-Sepharose; type: binding; settings: immobilised galactose; 25 mM CaCl2, 150 mM NaCl, pH 7.8; eluted with EDTA; fluorescein-labelled protein
T2 construct: fluorescein isothiocyanate labelled
T2 sequence (P70194 70-548 limits assumed): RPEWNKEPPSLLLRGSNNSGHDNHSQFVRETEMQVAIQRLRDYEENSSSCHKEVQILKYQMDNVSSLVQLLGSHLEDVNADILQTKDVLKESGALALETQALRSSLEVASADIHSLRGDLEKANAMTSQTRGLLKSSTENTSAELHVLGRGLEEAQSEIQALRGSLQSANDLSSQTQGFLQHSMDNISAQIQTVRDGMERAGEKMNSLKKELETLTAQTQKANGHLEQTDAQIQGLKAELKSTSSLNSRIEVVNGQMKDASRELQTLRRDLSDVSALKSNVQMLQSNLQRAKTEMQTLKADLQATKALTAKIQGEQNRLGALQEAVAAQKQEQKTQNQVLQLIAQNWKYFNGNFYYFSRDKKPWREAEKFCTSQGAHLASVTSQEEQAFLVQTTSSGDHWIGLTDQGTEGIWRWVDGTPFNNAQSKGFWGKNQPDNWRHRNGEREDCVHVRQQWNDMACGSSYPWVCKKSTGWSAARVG

OC[C@H]1OC(O)[C@H](O)[C@@H](O)[C@H]1O (some centres unmarked) [galactose]
affinity chromatography on galactose-Sepharose (Bovine CLEC4f protein): confirming that it has galactose-binding activity
affinity re-purification of the labelled protein on galactose-Sepharose [1]: the chimpanzee, bovine and murine proteins all bind to galactose
